In patent US7981448B2, “Methods of treating necrotizing enterocolitis” (University of Pittsburgh, priority 2002, dated 2011):

Assays:
neonatal rat ileum [1] = experiment: Animal model of necrotizing enterocolitis: gross and microscopic pathology of ileum; format: in vivo; conditions: for Gross Changes (n): Bowel wall necrosis / Gross Changes (n): Pneumatosis intestinalis / Microscopic Changes (n): Stromal neutrophils / Microscopic Changes (n): Vacuolization / Microscopic Changes (n): Villous atrophy: day 4 of life
Experimental: (§1) Pregnant time-dated Sprague-Dawley rats were induced at term using subcutaneous injection of Pitocin (1 U). Immediately after birth (day zero), the neonates were weighed and randomized into two main groups. Animals were either left with their mothers and thus breast-fed, or separated from their mothers, housed in an incubator (Ohio Medical Products, Madison, Wis.), gavage fed with a special rodent formula two times daily, and subjected to 10 minutes of hypoxia (5% O2, 95% N2; PraxAir, Pittsburgh, Pa.) prior to each feeding. The formula consisted of 15 g Similac® 60/40 (Ross Pediatrics, Colombus, Ohio) in 75 mL of Esbilac® canine milk replacement (Pet-Ag Inc., Hampshire, Ill.). Rats from each group were further randomized to receive no additional treatment or one-hour per day CO treatment (250 parts per million; ppm, days 1-3). CO was delivered as described below. The neonatal rats were sacrificed on day four. The intestines were inspected for gross necrotic changes and pneumatosis intestinalis. The last 2 cm of terminal ileum was harvested for morphological studies, and mucosal scrapings were collected for detection of protein.
Animals were exposed to CO at a concentration of 250 ppm. Briefly, 1% CO in air was mixed with air (21% oxygen) in a stainless steel mixing cylinder and then directed into a 3.70 ft^3 glass exposure chamber at a flow rate of 12 L/min. A CO analyzer (Interscan, Chatsworth, Calif.) was used to measure CO levels continuously in the chamber. CO concentrations were maintained at 250 ppm at all times. Rats were placed in the exposure chamber as required.
Intestinal specimens were harvested as described above. Hematoxylin and eosin (H&E) slides were prepared as per standard protocol and examined by light microscopy. The presence of morphological changes in the intestinal epithelium, including separation of the villous core, submucosal edema, and epithelial sloughing, were determined by a pathologist in a blinded fashion.

neonatal rat ileum [2] = experiment: TUNEL staining of ileal whole mounts in the NEC model; format: in vivo; conditions: H/F neonatal rats, CO 250 ppm 1 h/day days 1-3, ileum day 4
Experimental: as §1
(§2) Animals were exposed to CO at a concentration of 250 ppm. Briefly, 1% CO in air was mixed with air (21% oxygen) in a stainless steel mixing cylinder and then directed into a 3.70 ft^3 glass exposure chamber at a flow rate of 12 L/min. […]

TNF-α = experiment: Serum cytokine determination by ELISA (TNF-α); format: in vivo, rat; conditions: H/F neonatal rats + CO 250 ppm; 33.2 fold in H/F without CO
Experimental: as §1, §2

IL-1β [3] = experiment: Serum cytokine determination by ELISA (IL-1β); format: in vivo, rat; conditions: H/F neonatal rats + CO 250 ppm; 18.5 fold in H/F without CO
Experimental: as §1, §2

COX-2 = experiment: Western blot of ileal mucosal lysates (COX-2); format: in vivo, rat; conditions: H/F neonatal rats + CO, ileal mucosa
Experimental: as §1, with “The last 2 cm of terminal ileum was harvested for morphological studies, and mucosal scrapings were collected for detection of protein.” left out
(§3) IEC-6 cells or ileal mucosal scrapings were collected in lysis buffer containing 20 mmol/L Tris with 100 μmol/L phenylmethylsulfonylfluoride (Sigma), 1 μmol/L leupeptin (Sigma), and 1 μmol/L sodium orthovanadate (Sigma). Protein was quantified by bicinchoninic acid (BCA) protein assay (Pierce, Rockford, Ill.). […]

IL-1β [4] = experiment: Western blot of ileal mucosal lysates (IL-1β); format: in vivo, rat; conditions: H/F neonatal rats + CO, ileal mucosa
Experimental: as §1, with “The last 2 cm of terminal ileum was harvested for morphological studies, and mucosal scrapings were collected for detection of protein.” left out
as §3

HO-1 = experiment: Western blot of ileal mucosal lysates (HO-1); format: in vivo, rat; conditions: H/F neonatal rats + CO (data not shown)
Experimental: as §1, with “The last 2 cm of terminal ileum was harvested for morphological studies, and mucosal scrapings were collected for detection of protein.” left out
as §3

iNOS [5] = experiment: Western blot of ileal mucosal lysates (iNOS); format: in vivo, rat; conditions: H/F neonatal rats + CO, ileal mucosa
Experimental: as §1, with “The last 2 cm of terminal ileum was harvested for morphological studies, and mucosal scrapings were collected for detection of protein.” left out
as §3

nitrosotyrosines = experiment: Western blot of ileal mucosal lysates (protein nitration); format: in vivo, rat; conditions: H/F neonatal rats + CO, ileal mucosa
Experimental: as §1, with “The last 2 cm of terminal ileum was harvested for morphological studies, and mucosal scrapings were collected for detection of protein.” left out
as §3

IEC-6 cells [6] = experiment: TNF-α/Actinomycin D-induced IEC-6 cell death, viability by cellular ATP content; format: cell-based, rat; conditions: for TNF-α/ActD-induced IEC-6 cell death (in words): CoPP 16 hours before
Experimental: FIG. 7 is a bar graph illustrating that CO exposure and induction of HO-1 decreases TNF-α/Actinomycin D (TNF/ActD)-induced IEC-6 cell death. Viability of TNF-α (TNF; 10 ng/ml)/Actinomycin D (ActD; 200 ng/ml)-treated IEC-6 cells was assayed after 18 hours by measuring cellular ATP content. CO treatment (CO; gray bars; 250 ppm) was initiated 1 hour prior to administration of TNF-α/ActD and maintained throughout the duration of the experiment. Cross-hatched bars=cells exposed to cobalt protoporphyrin (CoPP) 16 hours prior to exposure to TNF-α/ActD. Black bars=air exposed cells. […] Results are mean±standard error of 3 independent studies performed in triplicate.
(§4) The rat small-intestinal epithelial cell line IEC-6 was obtained from the American Type Culture Collection (Manassas, Va.). Cells were grown in Dulbecco's modified Eagle's medium with 4.5 g/L glucose (Bio-Whittaker, Walkersville, Md.) supplemented with 5% fetal bovine serum, […] (Gibco, Grand Island, N.Y.), 0.1 U/mL insulin, and 100 U/mL penicillin/100 μg/mL streptomycin at 37° C. and 10% CO2. Cells from passages 3 through 20 were used for experiments.
Cell viability was determined by measuring ATP levels (CellTiter-Glo™; Promega) as per the manufacturer's protocol.
To determine whether HO-1 or CO inhibits cell death in vitro, the rat intestinal epithelial cell line IEC-6 was utilized. Cell death was induced by treating these cells with TNF-α (10 ng/ml) plus actinomycin D (ActD; 200 ng/ml). Cell viability was analyzed by crystal violet staining of adherent cells and assessment of cellular ATP content. TNF-α/ActD decreased IEC-6 cell viability to 24±2.1% that of untreated controls (FIG. 7; P<0.05).

iNOS [7] = experiment: iNOS protein expression in IEC-6 cells by Western blot; format: cell-based, rat; conditions: 24 hours, CO 250 ppm from 1 hour before; for Cytokine-induced increase in iNOS protein in IEC-6 cells: CM: TNF-α 10 ng/ml, IL-1β 500 U/ml, IFN-γ 1000 U/ml, CoPP 16 hours before
Experimental: FIG. 8A is a picture of a Western blot illustrating (at 24 hours) that iNOS protein expression is inhibited in lipopolysaccharide (LPS) and/or hypoxia (1% oxygen) treated IEC-6 cells. CO treatment (250 ppm) was initiated 1 hour before the addition of LPS/hypoxia and maintained throughout the experiment. The combination of LPS (10 or 100 ng/ml) plus hypoxia increased iNOS protein expression, an effect that was inhibited by CO. The presence (+) or absence (−) of each treatment (lipopolysaccharide (lps), hypoxia exposure (hypoxia) and CO exposure (CO)) is indicated beneath each lane of the Western blot.
(§5) FIG. 8C is a picture of a Western blot illustrating that cytokine-induced iNOS protein expression is inhibited in IEC-6 cells by induction of HO-1 or treatment with CO. IEC-6 cells were treated with a cytokine mixture (CM) containing TNF-α (10 ng/ml), IL-1β (500 U/ml), and IFN-γ (1000 U/ml) for 24 hours. CO treatment (250 ppm) was initiated 1 hour prior to administration of CM and maintained throughout the duration of the experiment. Cobalt protoporphyrin (CoPP) was administered 16 hours prior to CM treatment. CM increased IEC-6 cell iNOS protein. Both CO and CoPP inhibited cytokine-induced increase in iNOS protein. The presence (+) or absence (−) of each treatment (cytokine mixture (CM), CO exposure (CO), and cobalt protoporphyrin exposure (CoPP)) is indicated beneath each lane of the Western blot.
The rat small-intestinal epithelial cell line IEC-6 was obtained from the American Type Culture Collection (Manassas, Va.). […]
as §3

rat iNOS promoter = experiment: Rat iNOS promoter-luciferase reporter assay in IEC-6 cells; format: cell-based; conditions: IEC-6, LPS 100 ng/ml + 1% oxygen + CO; 4.9±0.3 fold without CO
Experimental: FIG. 8B is a bar graph illustrating that rat iNOS promoter activity in LPS (100 ng/ml)/hypoxia (1% oxygen; lps/hypoxia)-treated IEC-6 cells is limited by exposure to CO. Cells were assayed for luciferase activity. […] CO limited this transcriptional activation to a 1.7±0.2 fold increase (P<0.05). Results are mean±standard error of 3 independent studies performed in triplicate.
as §4
pGL3/2 rat iNOS promoter-luciferase reporter was constructed as described in Beck et al., FEBS Lett 435:35-38 (1998). IEC-6 cells grown in 35 mm wells were transfected with 4 μL Lipofectamine2000® (Invitrogen), 0.15 μg pGL3/2 DNA and 0.5 μg pIEP-LacZ DNA, which was used as a control for transfection efficiency. Twenty-four hours following transfection, cells were treated for 6 hours, then lysates were collected and a luciferase assay (Promega) was performed with a luminometer (Berthold, Germany).

IEC-6 cells [8] = experiment: Nitrite determination (Griess) in IEC-6 culture medium; format: cell-based, rat; conditions: CM stimulation; 17.2±0.9 μM with CM alone, 1.4±0.3 μM unstimulated
Experimental: as §5
FIG. 8D is a bar graph illustrating that the nitrite levels in supernatantants of IEC-6 cells that are exposed to CM and either CO or CoPP are lower than those of IEC-6 cells exposed to CM and air (as determined by Griess assay). Cytokine stimulation increased nitrite to 17.2±0.9 μM compared to 1.4±0.3 μM in unstimulated controls (P<0.01). […] Black bars=air exposed cells; gray bars=CO exposed cells; and cross-hatched bars=CoPP exposed cells. […]
Nitrite (NO2^−) was measured in the culture medium using the Griess method.

[9] = Breast-fed + CO (250 ppm, 1 h/day, days 1-3), total n=7
[10] = Formula-Fed/Hypoxia + CO (250 ppm, 1 h/day, days 1-3), total n=8
[11] = TNF-α 10 ng/ml + ActD 200 ng/ml, 18 hours, CO 250 ppm from 1 hour before

## [C-]#[O+] [CO, carbon monoxide]
Neonatal rat ileum [1]; [9]
  Gross Changes (n): Bowel wall necrosis: 0 n
  Gross Changes (n): Pneumatosis intestinalis: 0 n
  Microscopic Changes (n): Stromal neutrophils: 0 n
  Microscopic Changes (n): Vacuolization: 1 n
  Microscopic Changes (n): Villous atrophy: 0 n
Neonatal rat ileum [1]; [10]
  Gross Changes (n): Bowel wall necrosis: 2 n
  Gross Changes (n): Pneumatosis intestinalis: 1 n
  Microscopic Changes (n): Stromal neutrophils: 1 n
  Microscopic Changes (n): Vacuolization: 3 n
  Microscopic Changes (n): Villous atrophy: 2 n
Neonatal rat ileum [1]; H/F (hypoxia/formula fed) neonatal rats, CO 250 ppm 1 h/day days 1-3, day 4
  Development of experimental NEC: significantly protected
Neonatal rat ileum [1]; breast fed neonatal rats, CO 250 ppm 1 h/day days 1-3, day 4
  Effect on gross or microscopic evaluation: no effect
Neonatal rat ileum [2]
  TUNEL staining for cell death: diminished
TNF-α
  Serum TNF-α increase compared to breast fed controls: 3 fold
IL-1β [3]
  Serum IL-1β increase compared to breast fed controls: 2.5 fold
COX-2
  Ileal COX-2 protein expression: decreased expression
IL-1β [4]
  Ileal IL-1β protein expression: decreased expression
HO-1
  Ileal HO-1 expression: decreased expression
iNOS [5]
  Ileal iNOS protein: markedly decreased
nitrosotyrosines
  Ileal nitrosotyrosines (protein nitration): markedly decreased
IEC-6 cells [6]; CO alone, in vitro
  Effect on viability of IEC-6 cells, agent alone: no measurable effect
IEC-6 cells [6]; [11]
  TNF-α/ActD-induced IEC-6 cell death (in words): significantly decreased
IEC-6 cells [6]; TNF-α 10 ng/ml + ActD 200 ng/ml, 18 hours, CO 250 ppm from 1 hour before, 24±2.1% without CO
  IEC-6 cell viability compared to untreated controls: 54±5.6%
iNOS [7]
  Cytokine-induced increase in iNOS protein in IEC-6 cells: inhibited
iNOS [7]; LPS 10 or 100 ng/ml + 1% oxygen
  LPS/hypoxia-induced iNOS protein in IEC-6 cells: inhibited
Rat iNOS promoter
  Transcriptional activation of the iNOS promoter, fold increase: 1.7±0.2 fold
IEC-6 cells [8]
  Nitrite levels in supernatants of cytokine-stimulated IEC-6 cells: 9.8 ± 0.7 µM

## C=CC1=C(C)c2cc3[n-]c(cc4nc(cc5[n-]c(cc1n2)c(C)c5CCC(=O)[O-])C(CCC(=O)[O-])=C4C)c(C)c3C=C.[Co+2].[H+].[H+] [CoPP, cobalt protoporphyrin, reference compound]
IEC-6 cells [6]; [11]
  TNF-α/ActD-induced IEC-6 cell death (in words): significantly decreased
iNOS [7]
  Cytokine-induced increase in iNOS protein in IEC-6 cells: inhibited
IEC-6 cells [8]
  Nitrite levels in supernatants of cytokine-stimulated IEC-6 cells: 10.4 ± 1.0 µM
